# From patent US10967038B2, “Use of cell-permeable peptide inhibitors of the JNK signal transduction pathway for the treatment of chronic or non-chronic inflammatory eye diseases” (priority 2010, dated 2021)
# Legend:
# Format in all cases: in vivo, rat
# [1] = tested on: phospho-p44/42 MAPK (Erk1/2); experiment: Immunohistochemistry of phospho-p44/42 MAPK (Erk1/2) in EIU eyes; conditions: 24 h
# Experimental: (§1) A second set of experiment was designed to evaluate the anti-inflammatory effect of the JNK-inhibitor (poly-)peptide of SEQ ID NO: 11 at the cellular and tissue level as well as the biodistribution of this molecule 24 hours after administration. Rats were randomized into 11 experimental groups. 6 groups of rats with uveitis: untreated uveitic rats, rats injected intravenously with NaCl or the JNK-inhibitor (poly-)peptide of SEQ ID NO: 11 and rats injected intravitreously with the vehicle, the JNK-inhibitor (poly-)peptide of SEQ ID NO: 11 or dexamethasone. The 5 additional groups without uveitis were: untreated healthy rats, rats treated by NaCl IV or the JNK-inhibitor (poly-)peptide of SEQ ID NO: 11 IV and rats injected IVT with NaCl or the JNK-inhibitor (poly-)peptide of SEQ ID NO: 11. Three eyes from separate rats were collected per group and used for immunohistochemistry.
# To analyze the ERK and p38 MAPK pathways, blots were sequentially incubated with a rabbit phospho-p44/42 MAPK (Erk1/2) (Thr202/Tyr204) (4370) primary antibody (or rabbit phospho-p38 MAPK (Thr180/Tyr182) (9215) antibody) and a horseradish peroxidase-conjugated goat anti-rabbit IgG (H+L) (PI-1000—Vector Laboratories, Clinisciences, Montrouge, France) secondary antibody at dilution 1:5000. […]
# [2] = tested on: inducible nitric oxide synthase (iNOS); experiment: iNOS expression in ocular tissues (immunohistochemistry, semi-quantitative RT-PCR); conditions: IV or IVT, 24 h, vs control eyes
# Experimental: Retinas and RPE/choroid/sclera complexes were also collected at 24 hours to analyze iNOS mRNA levels by RT-PCR and c-Jun phosphorylation state by Western-Blot. Tissues were collected only from eyes treated by IV (intravenous) injection of vehicle, IV injection of the JNK-inhibitor (poly-)peptide of SEQ ID NO: 11, IVT (intravitreal) injection of vehicle and IVT injection of the JNK-inhibitor (poly-)peptide of SEQ ID NO: 11 (n=2 eyes per condition collected from separate rats). Eyes were selected so that their EIU clinical score was representative of the mean of the experimental group they belong to, i.e 3 for eyes treated by IV and IVT injection of vehicle and 2 for eyes treated by IV or IVT injection of the JNK-inhibitor (poly-)peptide of SEQ ID NO: 11.
# To characterize the cellular infiltrate, sections were double-stained with ED1 and iNOS. […] After staining nuclei with DAPI (Sigma-Aldrich, Saint-Quentin Fallavier, France), sections were mounted in PBS/Glycerol (1/1) and observed by fluorescence photomicroscopy (FXA, Microphot, Nikon, Melville, USA). […] ED1 positive cells and polymorphonuclear cells, identified by the shape of their nuclei stained with DAPI, were quantified on histological sections. […] Results were expressed as mean±standard error of the mean (SEM). […]
# chemokines/cytokines = experiment: Chemokine/Cytokine Multiplex Assay on ocular fluids and sera
# Experimental: Aqueous humor and vitreous were collected and pooled from each enucleated eye. Ocular fluids were immediately centrifuged and the cell-free fractions were collected and frozen at −20° C. before analysis by Multiplex assay. Blood samples were first clotted at room temperature for 2 hours and then at 4° C. overnight. Serum was collected, centrifuged and the clear supernatant was collected and frozen at −20° C. before Multiplex analysis.
# In a first set of experiment, 70 rats were randomized into 14 experimental groups with 5 rats per group. Uveitis was induced in each group and rats were killed 6 hours (4 groups), 24 hours (6 groups) and 48 hours (4 groups) after LPS challenge. For each time point tested (i.e. 6 h, 24 h and 48 h), rats treated by intravenous or intravitreous injections of vehicle (NaCl 0.9%) or the JNK-inhibitor (poly-)peptide of SEQ ID NO: 11 were compared to untreated control uveitic rats. Two additional groups, treated by intravenous injection of vehicle and intravitreal injection of dexamethasone were used at 24 hours. Clinical ocular inflammation was recorded only at 24 hours (see Scoring of Endotoxin-Induced Uveitis (EIU) section). At each time point, intraocular fluids from each eye (n=10 per group) and serum from each animal (n=5 per group) were used for Chemokine/Cytokine Multiplex Assay.
# Intraocular fluids (diluted to obtain a final volume of 25 μL) and sera (25 μL of 1:5 dilution) were subjected to multiplex bead analysis. This method uses microspheres as the solid support for immunoassays12 and allows the titration of a greater number of cytokines with increased sensitivity than occurs with ELISA.13 For each sample, seventeen analytes were quantified simultaneously using the rat Cytokine/Chemokine-17plex kit (Milliplex Map Kit, Millipore, Saint-Quentin-en-Yvelines, France) according to the manufacturer's instructions: Chemokines MCP-1/CCL2, MIP-1α/CCL3, RANTES/CCL5, IP-10/CXCL10 (IFN-inducible protein-10) and GRO/KC; proinflammatory mediators IL-1[…], IL-18 and TNF-[…]; Th1/Th2/Th17 cytokines IL-2 and IFN-[…]/IL-4, IL-5, IL-6, IL-10 and IL-13/IL-17. The assay was performed in a 96-well filter plate and standard curves for each cytokine were generated with a Rat Cytokine Standard provided in the kit. All incubation steps were performed under medium orbital agitation and in the dark to protect the beads from light. Data acquisition and analysis were performed with the manager software version 4.1 (Bioplex; Bio-Rad) with four or five logistic parameters for standard curves. Detection thresholds for all the analytes were estimated around 1 to 10 pg/mL.
# [3] = Ocular biodistribution by immunohistochemistry against SEQ ID NO: 11
# Experimental: For immunohistochemistry, eyeballs were collected and fixed for 1 h at room temperature in phosphate buffered saline (PBS) containing 4% paraformaldehyde before being rinsed overnight in PBS. The next day, samples were embedded and frozen in optimal cutting-temperature (OCT) compound (Tissue-Tek®, Sakura Finetek, Zoeterwoude, Netherland) and stored at −80° C. Frozen antero-posterior sections of eyes (10 μm thick) were performed at the optic nerve level using a cryostat (Leica CM 3050S, Rueil-Malmaison, France) and mounted on super-frost slides for immunohistochemical analysis.
# as §1
# Immunostaining of the JNK-inhibitor (poly-)peptide of SEQ ID NO: 11 was performed on healthy and uveitic eyes to study its ocular biodistribution after systemic or local administration. Briefly, sections were permeabilized as described above before being sequentially incubated with an anti-SEQ ID NO: 11 purified rabbit IgG and a secondary Alexa 594 (red)-conjugated goat anti-rabbit IgG (Invitrogen, Cergy Pontoise, France) diluted 1:100 and 1:250 in PBS respectively. Immunostaining of untreated healthy and uveitic eyes were used as negative controls. Nuclei were stained with DAPI before mounting and observation.
# [4] = ocular fluids, IV injection, at 6 and 24 hours
# [5] = ocular fluids, IV injection, at different time points
# [6] = ocular fluids, IVT injection, at 6 hours, vs vehicle IVT
# [7] = ocular fluids, IVT injection, at 24 hours, vs vehicle IVT
# [8] = ocular fluids, treated versus untreated eyes, any tested time point
structure (smiles),measurement,setting,value
CC(C)C[C@@H](NC(=O)[C@@H](Cc1ccccc1)NC(=O)[C@H]1CCCN1C(=O)[C@@H](CCC(N)=O)NC(=O)[C@H](NC(=O)[C@H]1CCCN1C(=O)[C@@H](CCCNC(=N)N)NC(=O)[C@@H](CO)NC(=O)[C@@H](CCC(N)=O)NC(=O)[C@H](N)CC(=O)O)C(C)C)C(=O)N[C@H](CC(N)=O)C(=O)N[C@H](CC(C)C)C(=O)N[C@@H](C(=O)N[C@@H](C(=O)N1CCC[C@@H]1C(=O)N[C@H](CCCNC(=N)N)C(=O)N[C@H](CCCCN)C(=O)N1CCC[C@@H]1C(=O)N[C@H](CCCNC(=N)N)C(=O)N1CCC[C@@H]1C(=O)N1CCC[C@@H]1C(=O)N[C@H](CCCNC(=N)N)C(=O)N[C@H](CCCNC(=N)N)C(=O)N[C@H](CCCNC(=N)N)C(=O)N[C@H](CCC(N)=O)C(=O)N[C@H](CCCNC(=N)N)C(=O)N[C@H](CCCNC(=N)N)C(=O)N[C@H](CCCCN)C(=O)N[C@H](CCCCN)C(=O)N[C@H](CCCNC(=N)N)C(=O)NCC(=O)O)[C@H](C)O)[C@H](C)O [SEQ ID NO: 11],effect on p-Erk1/2 signal in iris epithelium,[1]; iris,no effect
same,effect on p-Erk1/2 signal in retinal Müller glial (RMG) cells,"[1]; neuroretina, IV or IVT",no effect
same,number of iNOS positive cells,[2],reduced
same,MCP-1 level,chemokines/cytokines; [4],significant reduction
same,MIP-1α level,chemokines/cytokines; [4],significant reduction
same,RANTES level,chemokines/cytokines; [4],significant reduction
same,GRO/KC level,"chemokines/cytokines; ocular fluids, IV injection, at 6 hours",significantly reduced
same,IL-10 level,"chemokines/cytokines; ocular fluids, IV injection, at 6 hours, not significantly",tended to increase
same,IL-6 level,chemokines/cytokines; [5],significantly reduced
same,INF-γ level,chemokines/cytokines; [5],significantly reduced
same,TNF-α level,chemokines/cytokines; [5],significantly reduced
same,IL-2 level,chemokines/cytokines; [6],a trend to a decrease
same,IL-6 level,chemokines/cytokines; [6],a trend to a decrease
same,MCP-1 level,chemokines/cytokines; [6],a trend to a decrease
same,TNF-α level,chemokines/cytokines; [6],a trend to a decrease
same,IL-2 level,chemokines/cytokines; [7],marked decrease
same,IL-13 level,chemokines/cytokines; [7],increase
same,IL-1β level,chemokines/cytokines; [8],did not differ
same,IL-4 level,chemokines/cytokines; [8],did not differ
same,IL-18 level,chemokines/cytokines; [8],did not differ
same,IL-2 level (tended to be reduced),"chemokines/cytokines; serum, IV administration",not statistically significant
same,MIP-1α level (tended to be reduced),"chemokines/cytokines; serum, IV administration",not statistically significant
same,IL-2 level (tended to be reduced),"chemokines/cytokines; serum, IVT administration",not statistically significant
same,distribution in ocular tissues (immunoreactivity),"[3]; EIU eyes, 24 h after IV injection, occasional infiltrating inflammatory cells immunopositive",not detected in ocular tissues
same,distribution in ocular tissues (immunoreactivity),"[3]; healthy eyes, 24 h after IV injection, 20 μg/kg",no signal was observed
same,inflammatory cell infiltration in healthy eyes,"[3]; healthy eyes, 24 h after IV or IVT",No inflammatory cell infiltration was observed
same,distribution in ocular tissues (immunoreactivity),"[3]; healthy eyes, 24 h after IVT injection, 0.2 μg/injection",distributed in almost all ocular tissues
same,distribution in ocular tissues (immunoreactivity),"[3]; uveitic eyes, 24 h after IVT injection, also in mobilized resident cells (microglial)",mostly found in ocular tissues like in healthy eyes
